How the values were obtained:
[1] = system: TNFα release in THP-1 cells; assay: LPS-induced TNFα release in THP-1 cells; type: cell-based, human; conditions: THP1 cells
Description: THP-1 cells, a human monocytic cell line, were stimulated with 3 μg/mL of LPS (from E. Coli; 0111:B4, Sigma) for 4 hr and the supernatant collected for determination of the TNFα concentration by sandwich ELISA (Duo-set, R&D systems). The inhibition of TNFα production was calculated at each concentration by comparison with vehicle control.

[2] = system: TNFα release in d-U937 cells; assay: LPS-induced TNFα release in d-U937 cells; type: cell-based, human; conditions: dU937 cells; relative to 10 μg/mL BIRB796; read-out: LPS Induced Release TNFα REC50 (dU937)
Description: (§1) U937 cells, a human monocytic cell line, were differentiated into macrophage-type cells by incubation with PMA (100 ng/mL) for 48 to 72 hr. Cells were pre-incubated with final concentrations of test compound for 2 hr and were then stimulated with LPS (0.1 μg/mL; from E. Coli: 0111:B4, Sigma) for 4 hr. The supernatant was collected for determination of TNFα and IL-8 concentrations by sandwich ELISA (Duo-set, R&D systems). […] The relative 50% effective concentration (REC50) was determined from the resultant concentration-response curve. The inhibition of IL-8 production was calculated at each concentration of test compound by comparison with vehicle control.

[3] = system: IL-8 release in d-U937 cells; assay: LPS-induced IL-8 release in d-U937 cells; type: cell-based, human; conditions: dU937 cells
Description: as §1, with “Cells were pre-incubated with final concentrations of test compound for 2 hr and were then stimulated with LPS (0.1 μg/mL; from E. Coli: 0111:B4, Sigma) for 4 hr.” left out

[4] = system: ICAM-1 expression in BEAS2B cells; assay: Poly I:C-induced ICAM-1 expression in BEAS2B cells; type: cell-based, human; conditions: read-out: PolyIC/ICAM1 IC50 (BEAS2B)
Outline: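 BEAS2B human bronchial epithelial cells pre-incubated 2 h with compound, then transfected with 1 μg/mL poly I:C plus Oligofectamine. After 18 h, surface ICAM-1 measured by cell-based ELISA (OD450–655), normalised to crystal violet cell count (OD595). Inhibition calculated against vehicle control.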

[5] = system: HRV IL-8 release (BEAS2B); assay: Rhinovirus-induced IL-8 release in BEAS2B cells; type: cell-based, human; conditions: at 0.04 μg/mL
Description: Human rhinovirus RV16 was obtained from the American Type Culture Collection (Manassas, Va.). Viral stocks were generated by infecting Hela cells with HRV until 80% of the cells were cytopathic.
BEAS2B cells were infected with HRV at an MOI of 5 and incubated for 2 hr at 33° C. with gentle shaking for to promote absorption. The cells were then washed with PBS, fresh media added and the cells were incubated for a further 72 hr. The supernatant was collected for assay of IL-8 concentrations using a Duoset ELISA development kit (R&D systems, Minneapolis, Minn.).
The level of cell surface ICAM-1 expression was determined by cell-based ELISA. At 72 hr after infection, cells were fixed with 4% formaldehyde in PBS. After quenching endogenous peroxidase by adding 0.1% sodium azide and 1% hydrogen peroxide, wells were washed with wash-buffer (0.05% Tween in PBS: PBS-Tween). […] The ICAM-1 signal was detected by adding substrate and reading at 450 nm with a reference wavelength of 655 nm using a spectrophotometer. The wells were then washed with PBS-Tween and total cell numbers in each well were determined by reading absorbance at 595 nm after Crystal Violet staining and elution by 1% SDS solution. The measured OD450-655 readings were corrected for cell number by dividing with the OD595 reading in each well. […]

[6] = system: HRV16; assay: HRV16 induced CPE in MRC5 cells; type: cell-based, human rhinovirus; conditions: at 0.04 μg/mL
Description: The supernatants were aspirated, and then fresh media added followed by incubation for 4 days. Where appropriate, cells were pre-incubated with compound or DMSO for 2 hr, and the compounds and DMSO added again after washout of the virus.
The percentage inhibition for each well was calculated. The IC50 value was calculated from the concentration-response curve generated by the serial dilutions of the test compounds.

[7] = system: d-U937 cells; assay: Cell viability: MTT assay; type: cell-based, human; conditions: 1 μg/mL
Outline: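 Differentiated U937 cells exposed to compound at 1 or 10 μg/mL final, either 4 h in 5% FCS RPMI1640 or 24 h in 10% FCS RPMI1640. After medium replacement, MTT added 1 h, formazan dissolved in DMSO, A550 read. % viability loss vs 0.5% DMSO vehicle; apparent viability gain shown as negative %.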

Cc1ccc(-n2nc(C(C)(C)C)cc2NC(=O)Nc2ccc(Oc3ccnc(Nc4ccccc4Cl)n3)c3ccccc23)cc1 [Example 19, 1-(3-(tert-butyl)-1-(p-tolyl)-1H-pyrazol-5-yl)-3-(4-((2-((2-chlorophenyl)amino)pyrimidin-4-yl)oxy)naphthalen-1-yl)urea]
IC50 [1]: 192 nM
EC50 [2]: 13 nM
IC50 [3]: 14 nM
IC50 [4]: 43 nM
HRV IL-8 (BEAS2B) % inhibition [5]: 100%
HRV CPE (MRC5) % inhibition [6]: NE (NE: no effect, ≦0% at 0.04 μg/mL)
MTT Assay Cell viability at time point in d-U937 Cells ([7]; 4 h): −ve (−ve and +ve indicate the value is below and above respectively, the no significant effect threshold defined as 30% inhibition at 1 μg/mL at the time point indicated)
MTT Assay Cell viability at time point in d-U937 Cells ([7]; 24 h): −ve (−ve and +ve indicate the value is below and above respectively, the no significant effect threshold defined as 30% inhibition at 1 μg/mL at the time point indicated)

— US9724347B2, “1-pyrazolyl-3-(4-((2-anilinopyrimidin-4-yl)oxy)napththalen-1-yl) ureas as P38 MAP knase inhibitors” (Respivert Ltd., priority 2011, dated 2017)
